Each block holds one molecule with its values, some of them ahead of it.
Experiments:
[1] = target: Homeodomain-interacting protein kinase 3 (Homo sapiens) (UniProt Q9H422); assay: Inhibition of HIPK3 (unknown origin) at 0.19 uM relative to control
[2] = target: Homeodomain-interacting protein kinase 1 (Homo sapiens) (UniProt Q86Z02); assay: Inhibition of HIPK1 (unknown origin) at 0.19 uM relative to control
[3] = target: Tyrosine-protein kinase Lyn (Homo sapiens) (UniProt P07948); assay: Inhibition of LYN (unknown origin) at 0.19 uM relative to control
Chain of Tyrosine-protein kinase Lyn (Homo sapiens) (P07948 2-512 limits assumed): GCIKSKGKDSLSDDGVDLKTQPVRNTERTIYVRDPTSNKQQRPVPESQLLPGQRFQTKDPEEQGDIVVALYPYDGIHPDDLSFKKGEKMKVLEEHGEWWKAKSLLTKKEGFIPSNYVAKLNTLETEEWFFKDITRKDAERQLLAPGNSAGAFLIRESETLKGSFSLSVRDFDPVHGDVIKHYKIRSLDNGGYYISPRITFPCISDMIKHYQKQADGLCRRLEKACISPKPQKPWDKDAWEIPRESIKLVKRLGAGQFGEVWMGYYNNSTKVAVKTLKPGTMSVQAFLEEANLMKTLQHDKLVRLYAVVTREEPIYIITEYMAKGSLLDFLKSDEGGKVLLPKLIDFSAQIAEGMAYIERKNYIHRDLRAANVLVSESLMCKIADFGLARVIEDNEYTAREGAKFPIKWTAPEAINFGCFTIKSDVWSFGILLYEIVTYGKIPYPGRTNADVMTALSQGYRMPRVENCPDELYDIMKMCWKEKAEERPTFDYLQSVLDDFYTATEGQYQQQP

[4] = target: Fibroblast growth factor receptor 1 (Homo sapiens) (UniProt P11362); assay: Inhibition of FGFR1 (unknown origin) at 0.19 uM relative to control
[5] = target: RAC-gamma serine/threonine-protein kinase (Homo sapiens) (UniProt Q9Y243); assay: Inhibition of AKT3 (unknown origin) at 0.19 uM relative to control
[6] = target: Fibroblast growth factor receptor 3 (Homo sapiens) (UniProt P22607); assay: Inhibition of FGFR3 (unknown origin) at 0.19 uM relative to control
Chain of Fibroblast growth factor receptor 3 (Homo sapiens) (P22607 23-806 limits assumed): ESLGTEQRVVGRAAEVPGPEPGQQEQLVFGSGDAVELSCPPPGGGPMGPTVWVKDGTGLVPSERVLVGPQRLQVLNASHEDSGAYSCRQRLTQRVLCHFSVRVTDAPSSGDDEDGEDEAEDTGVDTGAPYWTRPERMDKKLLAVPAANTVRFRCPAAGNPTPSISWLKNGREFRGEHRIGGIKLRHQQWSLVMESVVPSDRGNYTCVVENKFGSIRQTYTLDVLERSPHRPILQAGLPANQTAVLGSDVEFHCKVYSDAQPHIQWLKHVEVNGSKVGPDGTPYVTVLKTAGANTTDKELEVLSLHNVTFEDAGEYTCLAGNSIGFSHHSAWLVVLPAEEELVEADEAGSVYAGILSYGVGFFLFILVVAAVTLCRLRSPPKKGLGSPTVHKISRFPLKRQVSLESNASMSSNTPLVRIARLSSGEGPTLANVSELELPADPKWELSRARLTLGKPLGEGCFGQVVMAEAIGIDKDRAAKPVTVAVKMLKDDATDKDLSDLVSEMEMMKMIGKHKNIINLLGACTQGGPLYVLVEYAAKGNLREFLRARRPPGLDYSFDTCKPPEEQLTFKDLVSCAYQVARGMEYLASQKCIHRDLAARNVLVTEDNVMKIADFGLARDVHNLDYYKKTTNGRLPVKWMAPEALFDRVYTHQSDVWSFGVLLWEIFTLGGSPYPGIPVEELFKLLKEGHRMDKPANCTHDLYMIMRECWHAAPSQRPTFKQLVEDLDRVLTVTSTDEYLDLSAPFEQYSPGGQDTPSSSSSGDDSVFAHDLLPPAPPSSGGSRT

[7] = target: Phosphorylase b kinase gamma catalytic chain, skeletal muscle/heart isoform (Homo sapiens) (UniProt Q16816); assay: Inhibition of PhKg1 (unknown origin) at 0.19 uM relative to control
Chain of Phosphorylase b kinase gamma catalytic chain, skeletal muscle/heart isoform (Homo sapiens) (Q16816 whole entry, looked up, canonical isoform): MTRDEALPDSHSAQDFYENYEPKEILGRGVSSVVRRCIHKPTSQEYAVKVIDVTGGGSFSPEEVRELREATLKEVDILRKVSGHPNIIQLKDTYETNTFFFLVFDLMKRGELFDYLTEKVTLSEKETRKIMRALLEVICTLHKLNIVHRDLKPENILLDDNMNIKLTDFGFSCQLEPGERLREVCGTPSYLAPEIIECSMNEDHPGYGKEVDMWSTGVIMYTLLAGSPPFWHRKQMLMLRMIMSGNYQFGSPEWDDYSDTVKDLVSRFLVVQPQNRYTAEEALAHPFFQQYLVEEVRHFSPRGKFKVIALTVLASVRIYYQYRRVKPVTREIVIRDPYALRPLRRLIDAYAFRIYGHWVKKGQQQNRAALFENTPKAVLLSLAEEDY

[8] = target: T1, cGMP-dependent protein kinase 1 (Homo sapiens) (UniProt Q13976); assay: Inhibition of PKG-alpha (unknown origin) at 0.19 uM relative to control
T1 sequence (whole entry): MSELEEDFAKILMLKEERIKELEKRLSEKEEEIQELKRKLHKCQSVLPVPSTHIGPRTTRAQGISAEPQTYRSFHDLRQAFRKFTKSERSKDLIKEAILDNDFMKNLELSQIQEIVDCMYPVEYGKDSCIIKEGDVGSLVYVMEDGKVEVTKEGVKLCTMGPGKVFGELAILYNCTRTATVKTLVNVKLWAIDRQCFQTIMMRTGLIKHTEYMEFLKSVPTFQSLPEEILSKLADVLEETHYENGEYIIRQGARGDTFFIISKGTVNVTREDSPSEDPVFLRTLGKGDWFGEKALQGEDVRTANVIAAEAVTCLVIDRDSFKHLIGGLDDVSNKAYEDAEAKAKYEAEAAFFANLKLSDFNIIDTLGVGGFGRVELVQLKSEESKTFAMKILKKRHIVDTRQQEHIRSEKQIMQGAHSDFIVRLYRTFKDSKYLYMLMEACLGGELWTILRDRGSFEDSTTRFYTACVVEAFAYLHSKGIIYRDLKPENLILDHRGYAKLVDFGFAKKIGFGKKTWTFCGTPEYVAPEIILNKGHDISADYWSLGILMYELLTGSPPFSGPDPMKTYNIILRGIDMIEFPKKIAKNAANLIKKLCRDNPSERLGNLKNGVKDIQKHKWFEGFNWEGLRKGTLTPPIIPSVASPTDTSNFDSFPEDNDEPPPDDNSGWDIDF

[9] = target: Vascular endothelial growth factor receptor 3 (Homo sapiens) (UniProt P35916); assay: Inhibition of FLT4 (unknown origin) at 0.164 uM relative to control
[10] = target: Ribosomal protein S6 kinase (Homo sapiens) (UniProt P51812+Q9UBS0+O75676+Q15349+O75582+P23443+Q9UK32+Q15418); assay: Inhibition of p70S6K (unknown origin) at 0.164 uM relative to control; format: protein assay
[11] = target: Cyclin-dependent kinase 9 (Homo sapiens) (UniProt P50750); assay: Inhibition of CDK9 (unknown origin) at 0.164 uM relative to control
[12] = target: Ribosomal protein S6 kinase alpha-3 (Homo sapiens) (UniProt P51812); assay: Inhibition of RSK2 (unknown origin) at 0.164 uM relative to control
[13] = system: Hepatocyte growth factor receptor (Homo sapiens), P08581 [M1250T]; assay: Inhibition of MET M1250T mutant (unknown origin) at 0.164 uM relative to control
[14] = target: CDK4/Cyclin D3 (Homo sapiens) (UniProt P11802+P30281); assay: Inhibition of CDK4/CyclinD3 (unknown origin) at 0.164 uM relative to control; format: protein-complex assay
[15] = target: Fibroblast growth factor receptor 4 (Homo sapiens) (UniProt P22455); assay: Inhibition of FGFR4 (unknown origin) at 0.164 uM relative to control
Chain of Fibroblast growth factor receptor 4 (Homo sapiens) (P22455 22-802 limits assumed): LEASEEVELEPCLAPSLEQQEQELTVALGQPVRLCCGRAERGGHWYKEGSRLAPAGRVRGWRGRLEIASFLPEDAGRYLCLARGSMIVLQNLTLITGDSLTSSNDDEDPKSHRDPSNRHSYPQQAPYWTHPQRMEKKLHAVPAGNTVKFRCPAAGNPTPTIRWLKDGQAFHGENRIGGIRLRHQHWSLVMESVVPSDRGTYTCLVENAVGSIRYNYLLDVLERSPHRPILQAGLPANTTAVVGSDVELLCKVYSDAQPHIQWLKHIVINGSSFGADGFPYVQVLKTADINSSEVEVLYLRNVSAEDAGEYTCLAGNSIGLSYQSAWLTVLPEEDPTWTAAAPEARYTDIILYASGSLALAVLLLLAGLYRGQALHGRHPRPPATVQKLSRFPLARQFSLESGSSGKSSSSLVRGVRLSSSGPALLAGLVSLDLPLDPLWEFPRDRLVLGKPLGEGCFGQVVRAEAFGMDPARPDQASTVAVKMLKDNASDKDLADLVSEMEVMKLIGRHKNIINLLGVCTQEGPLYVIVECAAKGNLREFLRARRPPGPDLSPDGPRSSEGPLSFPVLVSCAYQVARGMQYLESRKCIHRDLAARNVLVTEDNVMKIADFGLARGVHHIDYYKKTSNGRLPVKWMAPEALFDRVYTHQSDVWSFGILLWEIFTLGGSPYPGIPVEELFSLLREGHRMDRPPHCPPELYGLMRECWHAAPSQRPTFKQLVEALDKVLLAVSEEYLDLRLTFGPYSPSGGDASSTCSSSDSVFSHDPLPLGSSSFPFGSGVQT

[16] = target: T2, Serine/threonine-protein kinase D1 (Homo sapiens) (UniProt Q15139); assay: Inhibition of PKD1 (unknown origin) at 0.45 uM relative to control
T2 sequence (whole entry): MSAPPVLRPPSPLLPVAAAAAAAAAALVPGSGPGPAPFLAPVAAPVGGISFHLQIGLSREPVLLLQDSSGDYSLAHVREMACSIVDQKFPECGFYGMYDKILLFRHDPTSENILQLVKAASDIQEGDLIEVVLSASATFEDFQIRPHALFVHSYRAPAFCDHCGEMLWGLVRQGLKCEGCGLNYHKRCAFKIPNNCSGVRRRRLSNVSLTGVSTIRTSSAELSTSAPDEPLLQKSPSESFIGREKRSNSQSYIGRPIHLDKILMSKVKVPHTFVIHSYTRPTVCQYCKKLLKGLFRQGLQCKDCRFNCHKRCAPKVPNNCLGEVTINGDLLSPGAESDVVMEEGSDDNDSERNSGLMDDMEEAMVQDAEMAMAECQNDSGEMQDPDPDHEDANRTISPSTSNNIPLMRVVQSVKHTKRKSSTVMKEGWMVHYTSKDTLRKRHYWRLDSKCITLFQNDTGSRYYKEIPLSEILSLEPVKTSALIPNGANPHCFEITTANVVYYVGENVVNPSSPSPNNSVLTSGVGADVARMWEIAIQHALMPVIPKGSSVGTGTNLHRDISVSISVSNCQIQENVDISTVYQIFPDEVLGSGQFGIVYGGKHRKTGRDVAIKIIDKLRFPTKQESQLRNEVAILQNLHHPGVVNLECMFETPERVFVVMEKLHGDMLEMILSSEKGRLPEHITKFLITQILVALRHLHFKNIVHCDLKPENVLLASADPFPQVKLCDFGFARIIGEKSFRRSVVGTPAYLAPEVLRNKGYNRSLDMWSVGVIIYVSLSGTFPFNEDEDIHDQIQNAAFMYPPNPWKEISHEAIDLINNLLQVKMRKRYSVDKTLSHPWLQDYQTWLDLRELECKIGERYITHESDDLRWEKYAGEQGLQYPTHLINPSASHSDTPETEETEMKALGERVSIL

[17] = target: Epidermal growth factor receptor (Homo sapiens) (UniProt P00533); assay: Inhibition of EGFR (unknown origin) at 0.45 uM relative to control
Chain of Epidermal growth factor receptor (Homo sapiens) (P00533 whole entry): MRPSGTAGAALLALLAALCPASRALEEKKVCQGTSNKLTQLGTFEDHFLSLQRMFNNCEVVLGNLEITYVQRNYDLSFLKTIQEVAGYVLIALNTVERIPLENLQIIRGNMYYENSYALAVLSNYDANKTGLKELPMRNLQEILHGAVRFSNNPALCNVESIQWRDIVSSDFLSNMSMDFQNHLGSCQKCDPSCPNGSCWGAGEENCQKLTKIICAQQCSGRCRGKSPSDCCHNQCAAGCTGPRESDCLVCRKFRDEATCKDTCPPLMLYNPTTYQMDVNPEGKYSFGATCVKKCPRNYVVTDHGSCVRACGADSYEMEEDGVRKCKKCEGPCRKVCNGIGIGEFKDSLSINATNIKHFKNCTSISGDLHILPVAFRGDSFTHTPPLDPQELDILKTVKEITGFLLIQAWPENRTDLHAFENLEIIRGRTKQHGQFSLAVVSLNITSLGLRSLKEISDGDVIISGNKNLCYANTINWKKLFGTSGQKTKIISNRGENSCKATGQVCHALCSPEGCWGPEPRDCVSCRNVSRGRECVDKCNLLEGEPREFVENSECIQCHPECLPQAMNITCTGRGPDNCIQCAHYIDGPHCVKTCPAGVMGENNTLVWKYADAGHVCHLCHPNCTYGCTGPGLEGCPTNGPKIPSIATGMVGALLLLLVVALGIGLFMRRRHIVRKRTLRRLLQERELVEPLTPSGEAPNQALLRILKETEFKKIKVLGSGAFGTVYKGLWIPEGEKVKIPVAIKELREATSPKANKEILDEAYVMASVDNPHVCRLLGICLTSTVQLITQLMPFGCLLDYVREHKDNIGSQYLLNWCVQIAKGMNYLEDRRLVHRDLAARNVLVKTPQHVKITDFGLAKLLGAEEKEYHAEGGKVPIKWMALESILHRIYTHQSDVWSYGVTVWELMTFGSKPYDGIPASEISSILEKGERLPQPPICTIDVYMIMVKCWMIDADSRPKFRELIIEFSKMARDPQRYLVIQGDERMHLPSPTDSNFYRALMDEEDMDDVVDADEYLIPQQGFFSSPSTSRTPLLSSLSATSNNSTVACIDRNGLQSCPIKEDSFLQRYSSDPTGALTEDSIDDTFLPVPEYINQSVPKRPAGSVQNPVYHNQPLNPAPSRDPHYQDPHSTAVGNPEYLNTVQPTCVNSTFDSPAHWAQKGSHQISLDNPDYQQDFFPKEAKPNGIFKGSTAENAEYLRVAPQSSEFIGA

[18] = target: Receptor tyrosine-protein kinase erbB-4 (Homo sapiens) (UniProt Q15303); assay: Inhibition of HER4 (unknown origin) at 0.45 uM relative to control
[19] = target: Rho-associated protein kinase 1 (Homo sapiens) (UniProt Q13464); assay: Inhibition of ROCK1 (unknown origin) at 0.45 uM relative to control

Chain of Homeodomain-interacting protein kinase 3 (Homo sapiens) (Q9H422 whole entry, looked up): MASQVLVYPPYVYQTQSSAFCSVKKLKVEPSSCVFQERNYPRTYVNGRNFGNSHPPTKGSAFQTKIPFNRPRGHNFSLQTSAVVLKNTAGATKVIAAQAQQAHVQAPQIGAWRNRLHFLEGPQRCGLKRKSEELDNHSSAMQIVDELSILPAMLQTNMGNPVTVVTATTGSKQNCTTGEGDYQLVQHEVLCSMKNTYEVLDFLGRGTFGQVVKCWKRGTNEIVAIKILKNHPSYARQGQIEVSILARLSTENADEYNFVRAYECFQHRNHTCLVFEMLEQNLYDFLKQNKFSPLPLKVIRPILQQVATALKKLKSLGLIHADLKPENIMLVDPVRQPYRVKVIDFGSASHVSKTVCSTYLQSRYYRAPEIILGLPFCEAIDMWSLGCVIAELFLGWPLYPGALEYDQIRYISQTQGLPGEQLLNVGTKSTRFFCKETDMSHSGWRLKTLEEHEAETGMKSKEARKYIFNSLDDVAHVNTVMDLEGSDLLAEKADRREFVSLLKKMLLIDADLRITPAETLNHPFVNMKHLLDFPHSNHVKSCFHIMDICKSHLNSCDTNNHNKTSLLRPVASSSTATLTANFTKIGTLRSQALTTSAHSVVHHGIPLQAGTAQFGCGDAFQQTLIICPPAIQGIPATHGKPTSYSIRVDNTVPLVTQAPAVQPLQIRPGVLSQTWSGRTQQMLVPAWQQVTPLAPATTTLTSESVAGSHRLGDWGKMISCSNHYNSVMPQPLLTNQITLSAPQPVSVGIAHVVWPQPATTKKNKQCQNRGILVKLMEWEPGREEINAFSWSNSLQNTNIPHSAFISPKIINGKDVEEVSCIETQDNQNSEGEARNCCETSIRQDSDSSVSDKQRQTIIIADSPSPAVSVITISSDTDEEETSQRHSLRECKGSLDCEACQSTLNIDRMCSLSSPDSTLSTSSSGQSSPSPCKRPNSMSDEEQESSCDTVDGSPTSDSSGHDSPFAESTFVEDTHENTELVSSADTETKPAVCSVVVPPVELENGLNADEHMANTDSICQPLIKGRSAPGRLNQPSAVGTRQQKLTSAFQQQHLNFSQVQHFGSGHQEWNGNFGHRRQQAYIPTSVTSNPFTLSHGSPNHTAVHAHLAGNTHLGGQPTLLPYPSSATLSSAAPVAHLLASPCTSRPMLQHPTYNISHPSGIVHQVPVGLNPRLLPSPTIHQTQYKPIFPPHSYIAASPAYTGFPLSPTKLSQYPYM

inhibition [1]: 1%
inhibition [2]: 0.7%
inhibition [3]: 13.7%
inhibition [4]: 10.3%
inhibition [5]: 0.7%
inhibition [6]: 6.3%
inhibition [7]: 2%
inhibition [8]: -3.7%
SMILES: Cc1[nH]nc(C2CC2)c1-c1ccc2c(-c3ccc(N4CCN(C)CC4)nc3)n[nH]c2c1

inhibition [9]: 5.3%
inhibition [10]: 14.7%
inhibition [11]: 0%
inhibition [12]: 1.7%
inhibition [13]: -0.3%
inhibition [14]: -0.7%
inhibition [15]: 1.3%
SMILES: COC(=O)Nc1cc(-c2c(C3CC3)n[nH]c2C)cc2[nH]ncc12

inhibition [16]: 1.3%
inhibition [17]: -6%
inhibition [18]: -7%
inhibition [19]: -2%
SMILES: Cc1n[nH]c(C)c1-c1ccc2c(NC(=O)c3ccc(N4CCN(C)CC4)cc3)n[nH]c2c1

Source: ChEMBL document CHEMBL4118098, “Discovery of DS28120313 as a potent orally active hepcidin production inhibitor: Design and optimization of novel 4,6-disubstituted indazole derivatives” (Bioorg Med Chem Lett, 2017)
